What was measured:
iRS cells = experiment: Conversion of iRS cells to DsRed-negative (pluripotent) cells in high-density culture; type: cell-based, human; conditions: 0.5 mM added to MEF-conditioned medium, high-density culture (1×10^6 cells, 3 cm dish), day 6 after plating
Protocol: (§1) CM is conditioned medium.
The iRS cells were plated at a high density (1×10^6 cells) on a 3 cm dish coated with Matrigel, and culture was continued in a MEF-conditioned medium. From day 3, DsRed-negative cells were occasionally found, and DsRed-negative cell clump could be confirmed on day 6. On day 10, ES cell-like colony could be confirmed (FIG. 3A). The expression levels of exogenous OCT4 and SOX2 at that time were confirmed by quantitative PCR. Expression of exogenous gene disappeared on day 6 of high-density culture, and re-expression was void thereafter (FIG. 3B). Furthermore, the expression levels of the endogenous OCT4, TDGF1 and ECAD were confirmed by quantitative PCR. As a result, expression of these pluripotent marker genes was confirmed (FIG. 3C). Similarly, the mRNA expression levels of other pluripotent marker genes were confirmed on a heat map. As a result, mostly similar gene expression profiles were confirmed on day 6 and day 10 (FIG. 3D). Moreover, SSEA4 and ECAD, which are surface antigen markers showing pluripotency, were tested by an immunostaining method. As a result, both surface antigens could be recognized from day 6 (FIG. 3E). […]
iRS cells were plated at a high density (1×10^6 cells) on a 3 cm dish coated with Matrigel, 0.5 mM VPA was added to the MEF-conditioned medium and culture was continued. […] Phosphorylation of mTOR then was measured. […]

[1] = test system: phosphorylated mTOR (p-mTOR); experiment: Phosphorylation of mTOR in iRS cells; type: cell-based, human; conditions: addition to conditioned medium, vs DMSO control
Protocol: as §1
iRS cells were plated at a high density (1×10^6 cells) on a 3 cm dish coated with Matrigel, 0.5 mM VPA was added to the MEF-conditioned medium and culture was continued. […] Phosphorylation of mTOR then was measured.

Compound: CCCC(CCC)C(=O)[O-].[Na+] [VPA, sodium valproate]
- conversion rate to DsRed-negative cells (iRS cells): strikingly high
- amount of phosphorylated mTOR (p-mTOR) [1]: increased
